Assay results taken from ChEMBL document CHEMBL4414553, “Imidazopyridine-based selective and multifunctional ligands of biological targets associated with psychiatric and neurodegenerative diseases” (Eur J Med Chem, 2019).

What was measured:
Translocator protein = Translocator protein (Homo sapiens, UniProt P30536); experiment: Inhibition of TSPO (unknown origin)
[1] = Inhibition of CBR (unknown origin); parameters: species or system Homo sapiens
[2] = Partition coefficient, log P of the compound; assay type: physicochemical; conditions: octanol/water
[3] = Lipophilicity, log D of the compound; assay type: physicochemical; conditions: octanol/water
D(4) dopamine receptor = molecular target: T1, D(4) dopamine receptor (Homo sapiens, UniProt P21917); experiment: Agonist activity at dopamine D4 receptor (unknown origin)
T1 sequence (P21917 whole entry): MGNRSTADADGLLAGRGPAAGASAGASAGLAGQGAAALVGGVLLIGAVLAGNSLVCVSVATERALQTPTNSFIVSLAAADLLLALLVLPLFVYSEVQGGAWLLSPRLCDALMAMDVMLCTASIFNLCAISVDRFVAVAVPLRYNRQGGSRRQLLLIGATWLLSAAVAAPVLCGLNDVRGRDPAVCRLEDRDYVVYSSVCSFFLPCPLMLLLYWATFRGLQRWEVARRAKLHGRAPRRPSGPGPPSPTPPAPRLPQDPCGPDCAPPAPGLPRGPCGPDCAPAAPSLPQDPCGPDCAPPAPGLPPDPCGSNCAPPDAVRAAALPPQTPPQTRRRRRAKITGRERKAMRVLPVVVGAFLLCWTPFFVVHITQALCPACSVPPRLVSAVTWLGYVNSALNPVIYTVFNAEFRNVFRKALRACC

Adenosine A2 receptor = Adenosine A2 receptor (Homo sapiens, UniProt P29275+P29274); experiment: Inhibition of GFP-tagged human A2 receptor expressed in HEK cells by FRET-binding assay; assay type: cell-based
Adenosine receptor A1 = molecular target: T2, Adenosine receptor A1 (Homo sapiens, UniProt P30542); experiment: Inhibition of human A1 receptor
T2 sequence (P30542 whole entry): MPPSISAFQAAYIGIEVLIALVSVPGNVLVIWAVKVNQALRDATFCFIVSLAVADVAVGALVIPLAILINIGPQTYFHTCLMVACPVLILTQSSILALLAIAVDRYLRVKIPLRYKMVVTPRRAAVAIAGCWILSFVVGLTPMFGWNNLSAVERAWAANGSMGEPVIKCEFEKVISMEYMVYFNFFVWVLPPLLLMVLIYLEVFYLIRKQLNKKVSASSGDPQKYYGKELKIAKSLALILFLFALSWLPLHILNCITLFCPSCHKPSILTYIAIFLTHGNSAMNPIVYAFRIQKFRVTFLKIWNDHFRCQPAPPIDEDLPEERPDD

[4] = molecular target: Glycogen synthase kinase-3 (Homo sapiens, UniProt P49840+P49841); experiment: Inhibition of GSK3 (unknown origin); assay type: protein assay
[5] = molecular target: Glutamate [NMDA] receptor; experiment: Modulator activity at NMDA receptor (unknown origin); assay type: protein-complex assay, Homo sapiens
Mus musculus [6] = experiment: Inhibition of DYRK1A in mouse at 3 mg/kg relative to control; assay type: functional
[7] = molecular target: T3, Fatty-acid amide hydrolase 1 (Homo sapiens, UniProt O00519); experiment: Inhibition of FAAH (unknown origin)
T3 sequence (O00519 whole entry): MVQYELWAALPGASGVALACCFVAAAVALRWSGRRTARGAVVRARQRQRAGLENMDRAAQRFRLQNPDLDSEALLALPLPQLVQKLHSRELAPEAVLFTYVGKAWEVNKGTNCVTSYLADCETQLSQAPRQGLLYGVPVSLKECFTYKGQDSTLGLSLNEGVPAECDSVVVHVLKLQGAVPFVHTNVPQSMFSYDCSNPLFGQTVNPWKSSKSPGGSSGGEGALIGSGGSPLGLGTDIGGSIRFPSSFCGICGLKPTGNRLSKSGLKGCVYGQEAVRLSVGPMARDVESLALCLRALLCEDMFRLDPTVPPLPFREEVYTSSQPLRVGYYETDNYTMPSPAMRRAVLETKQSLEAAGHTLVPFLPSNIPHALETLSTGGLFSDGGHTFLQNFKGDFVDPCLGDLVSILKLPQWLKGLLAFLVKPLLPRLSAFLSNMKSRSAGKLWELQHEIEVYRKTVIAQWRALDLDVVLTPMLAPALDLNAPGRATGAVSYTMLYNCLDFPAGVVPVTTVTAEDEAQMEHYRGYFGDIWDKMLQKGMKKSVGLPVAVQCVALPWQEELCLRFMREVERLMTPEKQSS

[8] = Inhibition of MARK (unknown origin); parameters: species or system Homo sapiens
[9] = molecular target: T4, 5-hydroxytryptamine receptor 4 (Homo sapiens, UniProt Q13639); experiment: Antagonist activity at 5-HT4 receptor (unknown origin)
T4 sequence (Q13639 whole entry): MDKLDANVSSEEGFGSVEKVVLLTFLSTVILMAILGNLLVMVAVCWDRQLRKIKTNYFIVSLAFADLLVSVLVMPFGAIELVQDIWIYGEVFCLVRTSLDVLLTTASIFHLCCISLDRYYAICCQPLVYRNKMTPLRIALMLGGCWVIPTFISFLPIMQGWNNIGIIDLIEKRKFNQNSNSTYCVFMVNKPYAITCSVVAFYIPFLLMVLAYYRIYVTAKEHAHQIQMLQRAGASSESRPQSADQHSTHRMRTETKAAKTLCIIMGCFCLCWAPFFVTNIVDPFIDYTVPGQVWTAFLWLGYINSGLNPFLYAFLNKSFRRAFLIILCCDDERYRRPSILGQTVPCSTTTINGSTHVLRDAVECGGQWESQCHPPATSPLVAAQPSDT

[10] = molecular target: cAMP and cAMP-inhibited cGMP 3',5'-cyclic phosphodiesterase 10A (Homo sapiens, UniProt Q9Y233); experiment: Inhibition of human PDE10
Sequence of cAMP and cAMP-inhibited cGMP 3',5'-cyclic phosphodiesterase 10A (Q9Y233 whole entry): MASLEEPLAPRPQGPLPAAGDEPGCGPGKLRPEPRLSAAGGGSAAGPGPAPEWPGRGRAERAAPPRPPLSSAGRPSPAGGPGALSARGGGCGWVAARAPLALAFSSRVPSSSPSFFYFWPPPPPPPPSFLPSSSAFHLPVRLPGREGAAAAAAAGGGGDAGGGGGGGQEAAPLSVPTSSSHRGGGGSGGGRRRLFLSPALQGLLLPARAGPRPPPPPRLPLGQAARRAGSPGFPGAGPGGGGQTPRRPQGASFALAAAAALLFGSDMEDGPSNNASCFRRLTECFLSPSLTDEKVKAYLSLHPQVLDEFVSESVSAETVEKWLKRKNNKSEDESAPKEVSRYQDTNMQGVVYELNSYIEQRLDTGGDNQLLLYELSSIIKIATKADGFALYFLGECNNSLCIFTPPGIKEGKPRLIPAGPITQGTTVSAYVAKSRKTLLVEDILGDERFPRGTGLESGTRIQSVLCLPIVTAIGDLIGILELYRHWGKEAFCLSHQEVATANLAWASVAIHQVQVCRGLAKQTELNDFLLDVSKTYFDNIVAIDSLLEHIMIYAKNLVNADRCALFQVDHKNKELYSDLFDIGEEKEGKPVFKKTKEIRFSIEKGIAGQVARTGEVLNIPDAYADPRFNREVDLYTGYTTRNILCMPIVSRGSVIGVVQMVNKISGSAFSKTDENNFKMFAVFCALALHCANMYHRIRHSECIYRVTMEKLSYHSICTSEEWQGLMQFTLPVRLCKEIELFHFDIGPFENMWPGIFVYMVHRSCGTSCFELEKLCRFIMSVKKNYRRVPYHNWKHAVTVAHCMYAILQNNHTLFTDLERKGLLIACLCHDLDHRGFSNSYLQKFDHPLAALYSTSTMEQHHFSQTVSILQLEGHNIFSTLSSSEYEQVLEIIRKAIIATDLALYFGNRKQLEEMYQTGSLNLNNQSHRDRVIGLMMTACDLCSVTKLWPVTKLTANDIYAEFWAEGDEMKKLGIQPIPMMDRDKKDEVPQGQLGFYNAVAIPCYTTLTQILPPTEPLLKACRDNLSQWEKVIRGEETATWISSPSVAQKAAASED

[11] = molecular target: T5, 5-hydroxytryptamine receptor 3A (Homo sapiens, UniProt P46098); experiment: Antagonist activity at 5-HT3 receptor (unknown origin)
T5 sequence (P46098 whole entry): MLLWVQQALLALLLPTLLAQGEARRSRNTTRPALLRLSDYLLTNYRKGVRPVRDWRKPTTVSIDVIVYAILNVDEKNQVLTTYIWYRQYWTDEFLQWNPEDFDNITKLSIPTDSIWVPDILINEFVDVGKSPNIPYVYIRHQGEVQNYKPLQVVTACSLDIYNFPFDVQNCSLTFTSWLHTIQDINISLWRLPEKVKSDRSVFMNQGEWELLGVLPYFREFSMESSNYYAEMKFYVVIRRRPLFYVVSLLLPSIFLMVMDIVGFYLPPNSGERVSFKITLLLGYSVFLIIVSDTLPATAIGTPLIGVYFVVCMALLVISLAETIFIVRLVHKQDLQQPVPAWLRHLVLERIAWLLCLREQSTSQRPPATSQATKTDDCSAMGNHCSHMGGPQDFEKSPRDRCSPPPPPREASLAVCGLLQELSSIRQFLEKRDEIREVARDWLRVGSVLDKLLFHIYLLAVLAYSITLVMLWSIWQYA

[12] = molecular target: T6, Sodium- and chloride-dependent glycine transporter 1 (Homo sapiens, UniProt P48067); experiment: Inhibition of GlyT1 (unknown origin)
T6 sequence (P48067 whole entry): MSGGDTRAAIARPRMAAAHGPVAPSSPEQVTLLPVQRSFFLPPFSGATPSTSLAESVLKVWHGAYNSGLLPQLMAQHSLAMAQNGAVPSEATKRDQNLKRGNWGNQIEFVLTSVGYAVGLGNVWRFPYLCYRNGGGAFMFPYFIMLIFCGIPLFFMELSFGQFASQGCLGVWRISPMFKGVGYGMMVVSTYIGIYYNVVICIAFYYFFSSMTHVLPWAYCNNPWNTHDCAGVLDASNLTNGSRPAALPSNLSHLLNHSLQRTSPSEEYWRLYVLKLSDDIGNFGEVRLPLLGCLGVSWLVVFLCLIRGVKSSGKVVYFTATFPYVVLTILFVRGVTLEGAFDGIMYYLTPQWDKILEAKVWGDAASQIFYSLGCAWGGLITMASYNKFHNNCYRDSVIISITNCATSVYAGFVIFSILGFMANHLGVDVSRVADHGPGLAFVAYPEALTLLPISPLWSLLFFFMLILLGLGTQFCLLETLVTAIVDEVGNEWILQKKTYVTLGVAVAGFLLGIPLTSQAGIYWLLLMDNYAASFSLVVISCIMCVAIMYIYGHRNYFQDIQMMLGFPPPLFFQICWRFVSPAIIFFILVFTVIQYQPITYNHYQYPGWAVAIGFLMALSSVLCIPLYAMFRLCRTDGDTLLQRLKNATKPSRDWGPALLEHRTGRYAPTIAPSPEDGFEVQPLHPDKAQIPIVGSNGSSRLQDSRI

[13] = molecular target: T4, 5-hydroxytryptamine receptor 4; experiment: Inhibition of 5-HT4 receptor (unknown origin)
[14] = molecular target: Dual specificity tyrosine-phosphorylation-regulated kinase 1A (Homo sapiens, UniProt Q13627); experiment: Inhibition of DYRK1A (unknown origin) by TR-FRET assay
Mus musculus [15] = experiment: Inhibition of DYRK1A in mouse at 9 mg/kg relative to control; assay type: functional
Histamine H3 receptor = Histamine H3 receptor (Cavia porcellus, UniProt Q9JI35); experiment: Inhibition of Guinea Pig Ileum H3R
Sequence of Histamine H3 receptor (Q9JI35 whole entry): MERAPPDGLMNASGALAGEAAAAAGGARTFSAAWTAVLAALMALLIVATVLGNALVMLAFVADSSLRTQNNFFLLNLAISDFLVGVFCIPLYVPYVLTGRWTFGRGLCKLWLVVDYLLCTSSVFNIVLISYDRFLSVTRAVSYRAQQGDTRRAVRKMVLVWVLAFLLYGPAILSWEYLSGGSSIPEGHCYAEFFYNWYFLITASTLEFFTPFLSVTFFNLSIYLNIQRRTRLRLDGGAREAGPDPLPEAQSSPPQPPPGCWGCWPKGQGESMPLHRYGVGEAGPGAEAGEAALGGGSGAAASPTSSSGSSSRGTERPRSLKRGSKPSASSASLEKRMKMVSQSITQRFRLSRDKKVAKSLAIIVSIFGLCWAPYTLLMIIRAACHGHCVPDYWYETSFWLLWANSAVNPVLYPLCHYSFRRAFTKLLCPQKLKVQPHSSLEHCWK

Sequence of Translocator protein (P30536 whole entry): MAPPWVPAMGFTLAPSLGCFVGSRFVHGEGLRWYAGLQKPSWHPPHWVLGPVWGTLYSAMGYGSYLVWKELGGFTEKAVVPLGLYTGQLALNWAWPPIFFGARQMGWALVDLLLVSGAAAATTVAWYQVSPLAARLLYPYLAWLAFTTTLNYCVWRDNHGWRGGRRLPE

CCCN(CCC)C(=O)Cc1c(-c2ccccc2)nc2ccc([N+](=O)[O-])cn12
IC50 (Translocator protein): 11.8 nM
IC50 [1]: 2740 nM

c1cc2[nH]cnc2cn1
logP ([2]; read-out: logP): 0.04
logD ([3]; read-out: logD): 0.03

CCCN(CCC)C(=O)Cn1c(-c2ccc(Cl)cc2)nc2cccnc21
IC50 [1]: 380 nM

CCCN(CCC)C(=O)Cc1c(-c2ccc(Cl)cc2)nc2c(NC(=O)CN(Cc3ccccn3)Cc3ccccn3)cccn12
Ki (Translocator protein): 293 nM

CCCN(CCC)C(=O)Cc1c(-c2ccc(Cl)cc2)nc2c(N)cccn12
Ki (Translocator protein): 1.6 nM

c1ccn2ccnc2c1
logP [2]: 0.41
logD [3]: 0.73

Clc1ccc(N2CCN(Cc3cn4ccccc4n3)CC2)cc1Cl
Ki (D(4) dopamine receptor): 0.99 nM

Cc1ccc(-c2nc3ccccn3c2NC2CCCCC2)cc1
Ki (Adenosine A2 receptor): > 100000 nM
Ki (Adenosine receptor A1): 2060 nM

O=S(=O)(NCCCn1ccnc1)c1ccnc2[nH]c(-c3ccc(C(F)(F)F)cc3)nc12
IC50 [4]: 1600 nM

Cc1ccc2c(c1)C1CC(C)CCC1N2c1c(C(F)(F)F)nc2c(C)cccn12 (stereo not given)
IC50 [5]: 40000 nM

c1ccn2cncc2c1
logP ([2]; read-out: logP): 0.41
logD ([3]; read-out: logD): 0.17

Cc1nc2ccc(-c3cc(N)nc(N)c3)nc2n1C(C)C
inhibition in vivo at 3 mg/kg (Mus musculus [6]): 49%

Cc1ccc2c(c1)C1CN(C)CCC1N2CCC(=O)N(C)c1c(C(F)(F)F)nc2ccc(C)cn12 (stereo not given)
IC50 [5]: 33000 nM

O=C(COc1ccc(-c2ccccc2)cc1)Nc1cccc(-c2nc3ncccc3o2)c1
IC50 [7]: 630 nM

N[C@H]1CCCC(F)(F)[C@@H]1NC(=O)c1cc(-c2cnc3ccccn23)cs1
IC50 [8]: 15 nM

N[C@H]1CCCC(F)(F)[C@@H]1NC(=O)c1nc(-c2cnc3ccccn23)c(Cl)s1
IC50 [8]: 720 nM

CCCCN1CCC(CNC(=O)c2cc(Cl)cn3ccnc23)CC1
IC50 [9]: < 10 nM

CCCN(CCC)C(=O)Cc1c(-c2ccc(Cl)cc2)nc2c(CC(=O)CCCCC(=O)Nc3ccn([C@@H]4O[C@H](CO)[C@@H](O)[C@@H]4O)c(=O)n3)cccn12
IC50 (Translocator protein): 2.13 nM

Cc1nc2ccc(-c3cc(N)nc(N)c3)nc2n1C1CC1
inhibition in vivo at 3 mg/kg (Mus musculus [6]): 44%

Cc1nc(C2CC2c2nc3ccccn3c2C)cc(-n2nc(C)nc2C)n1 (stereo not given)
Ki [10]: 2.1 nM

O=C(NC1CN2CCC1CC2)c1cc(Cl)cn2ccnc12 (stereo not given)
IC50 [11]: 17.5 nM
Ki [11]: 12 nM

c1cnc2[nH]cnc2c1
logP ([2]; read-out: logP): 0.41
logD ([3]; read-out: logD): 0.41

CCC/C=C/COCC(=O)Nc1cccc(-c2nc3ncccc3o2)c1
IC50 [7]: 17000 nM

Fc1ccc(C(CCCN2CCC(Cc3nc4cccnc4n3Cc3cccs3)CC2)c2ccc(F)cc2)cc1
IC50 [12]: 549 nM

CCC/C=C/COCC(=O)Nc1cccc(-c2nc3cccnc3[nH]2)c1
IC50 [7]: 73000 nM

Cc1cn2c(N)c(Cl)cc(C(=O)NCC3CCNCC3)c2n1
Ki [11]: 26 nM

COc1ccc(-c2ccnc3[nH]c(-c4ccc(C(=O)N5CCCCC5)cc4)nc23)cc1
IC50 [4]: 31 nM

CCN1C(=O)N(C(=O)NC2CC3CCC(C2)N3C)C2C=CC=CC21 (stereo not given)
EC50 [13]: 360 nM

CC(C)N1C(=O)N(C(=O)NC2CC3CCC(C2)N3C)C2C=CC=CC21 (stereo not given)
EC50 [13]: 72 nM

CCOCCn1c(CN2CCN(CCCC(c3ccc(F)cc3)c3ccc(F)cc3)CC2)nc2cccnc21
IC50 [12]: 155 nM

CCSc1ccncc1NC(=O)c1ccnc2[nH]c(-c3ccc(N4CCCC4)cc3)nc12
IC50 [4]: 3 nM

Cn1cnc2cnccc21
logP ([2]; read-out: logP): 0.27
logD ([3]; read-out: logD): 0.26

Cn1cnc2cccnc21
logP ([2]; read-out: logP): 0.63
logD ([3]; read-out: logD): 0.63

O=C(NCCCn1ccnc1)c1ccnc2[nH]c(-c3ccc(C(F)(F)F)cc3)nc12
IC50 [4]: 13 nM

Cc1nc2ccc(-c3cc(N)nc(N)c3)nc2n1C[C@@H](C)Oc1ccccc1
IC50 [14]: 8 nM
inhibition in vivo at 9 mg/kg (Mus musculus [15]): 46%

O=C(COc1ccc(-c2ccccc2)cc1)Nc1cccc(-c2nc3cccnc3[nH]2)c1
IC50 [7]: 13000 nM

CCCN(CCC)C(=O)Cc1c(-c2ccc(Cl)cc2)nc2c(NC(=O)CCC(=O)OCC)cccn12
Ki (Translocator protein): 0.86 nM

CCCN(CCC)C(=O)Cc1c(-c2ccc(OC)cc2)nc2c(Cl)cc(Cl)cn12
Ki (Translocator protein): 0.537 nM
IC50 [1]: > 10000 nM

CCCN(CCC)C(=O)Cc1c(-c2ccc([N+](=O)[O-])cc2)nc2c(Cl)cc(Cl)cn12
Ki (Translocator protein): 0.15 nM

CCCCN(C)C(=O)Cc1c(-c2ccc(OC)cc2)nc2c(Cl)cc(Cl)cn12
Ki (Translocator protein): 0.882 nM
IC50 [1]: > 10000 nM

CCCN(CCC)C(=O)Cc1c(-c2ccc(Cl)cc2)[nH]c2ccc(Cl)cc12
Ki (Translocator protein): 3.9 nM
IC50 [1]: > 1000 nM

CCCN(CCC)C(=O)Cc1c(-c2ccc(Cl)cc2)nc2c(Cl)cc(Cl)cn12 [ALPDEM]
Ki (Translocator protein): 0.41 nM

CCCN(CCC)C(=O)Cc1c(-c2ccc(Cl)cc2)nc2ccc(Cl)cn12 [ALPIDEM]
IC50 (Translocator protein): 7.9 nM
Ki (Translocator protein): 0.5 to 7 nM
IC50 [1]: 26 nM

Cn1nc(N2CCC(OC(=O)N3CCN(C4CCC4)CC3)CC2)ccc1=O [LML-134]
Ki (Histamine H3 receptor): 12 nM

O=C1NC2CCCCN2C12CCN(CCCN1c3ccccc3CCc3ccc(Cl)cc31)CC2 (stereo not given) [MOSAPRAMINE]
Ki (D(4) dopamine receptor): 0.03 nM
